# Columns and labels:
# H460 cells = experiment: Wound healing assay (migration); assay type: cell-based, human; conditions: H460, 1 and 2.5 μM, at 48 h and 72 h, vs untreated cells
# Procedure: Wound healing assay was conducted to assess the effects of DH_31 on migration. H292 and H460 cells (4.0–4.2 × 10^4 cells per well) were seeded in 96-well plates. Following overnight incubation, wounds were created by scraping the monolayer cells with a 10 μL pipette tip, and non-adherent cells were washed off with PBS. The cells were treated with different concentrations of DH_31 (0–2.5 μM) in the growth medium containing 1% FBS for 72 h at 37 °C. […] The scratched area was analyzed by using ImageJ™ software (Image J 1.52a, Rasband, W., National Institutes of Health, Bethesda, MD, USA). Cell migration was determined by the rate of cells moving towards the scratched area.
# [1] = tested on: EMT markers (ZO1, ZEB1, Slug, Snail, N-cadherin, Vimentin) in H460 cells; experiment: Immunofluorescence staining of EMT markers; assay type: cell-based, human
# Excerpt: EMT is a biological process that is associated with cancer progression and the spread of cancer cells to other parts of the body. This mechanism facilitates the motility of cancer cells, enhances anoikis resistance, and contributes to poor prognosis due to its high metastatic potential. Given the critical role of EMT in the metastasis processes, we firstly investigated EMT markers. Therefore, to validate that DH_31 inhibits metastasis, H460 cells were selected to elucidate the mechanism because of their enhanced migration and invasion behavior [36]. H460 cells were exposed to the non-toxic concentration range of 0–2.5 µM of DH_31 for 24 h. Subsequently, the evaluation of EMT expression levels was carried out through the application of immunofluorescence assay and Western blotting. We further investigated key hallmarks of EMT, specifically the reduction in the expression levels of epithelial marker (ZO1) and the increase in the expression levels of mesenchymal markers (Slug, Snail, ZEB1, N-cadherin, and Vimentin). […] The expressions of Snail, N-cadherin, and Vimentin were reduced in a concentration-dependent manner. […] Furthermore, the results from the Western blot analysis confirmed the findings from immunofluorescence staining (Figure 3C). […] The protein alterations in response to DH_31 were clarified.
# Immunofluorescence staining and confocal microscopy were conducted to visualize the subcellular localization and spatial distribution of specific proteins. H460 cells (1.0 × 10^4 cells per well) were seeded in 96-well plates. Following overnight incubation, the cells were treated with different concentrations of DH_31 (0–2.5 μM) for 24 h at 37 °C. After treatment, the cells were permeabilized with 0.5% Triton-X in PBS for 5 min, followed by the blocking of non-specific proteins with 10% FBS in 0.1% Triton-X PBS for 1 h at room temperature. Subsequently, the cells were exposed to primary antibodies (STAT3, Slug, Snail, Vimentin, N-cadherin, ZO1, and ZEB1) and incubated at 4 °C overnight. The cells were then incubated with Alexa Fluor 488- or 594-conjugated secondary antibodies and Hoechst 33342 for 1 h at room temperature. After washing with PBS, the cells were covered with 50% glycerol. The images were captured by confocal microscopy (Zeiss, Jena, Germany). The fluorescence intensity was measured using ImageJ™ software (Image J 1.52a, Rasband, W., National Institutes of Health, Bethesda, MD, USA).
# STAT3 = target: T1, STAT3 (Homo sapiens, UniProt P40763); experiment: STAT3 Western blot; assay type: cell-based; conditions: H460, 1 μM and 2.5 μM, 24 h (p < 0.05)
# T1 construct: endogenous in cells; host or cells: NCI-H460 (ATCC HTB-177)
# T1 sequence (P40763 whole entry): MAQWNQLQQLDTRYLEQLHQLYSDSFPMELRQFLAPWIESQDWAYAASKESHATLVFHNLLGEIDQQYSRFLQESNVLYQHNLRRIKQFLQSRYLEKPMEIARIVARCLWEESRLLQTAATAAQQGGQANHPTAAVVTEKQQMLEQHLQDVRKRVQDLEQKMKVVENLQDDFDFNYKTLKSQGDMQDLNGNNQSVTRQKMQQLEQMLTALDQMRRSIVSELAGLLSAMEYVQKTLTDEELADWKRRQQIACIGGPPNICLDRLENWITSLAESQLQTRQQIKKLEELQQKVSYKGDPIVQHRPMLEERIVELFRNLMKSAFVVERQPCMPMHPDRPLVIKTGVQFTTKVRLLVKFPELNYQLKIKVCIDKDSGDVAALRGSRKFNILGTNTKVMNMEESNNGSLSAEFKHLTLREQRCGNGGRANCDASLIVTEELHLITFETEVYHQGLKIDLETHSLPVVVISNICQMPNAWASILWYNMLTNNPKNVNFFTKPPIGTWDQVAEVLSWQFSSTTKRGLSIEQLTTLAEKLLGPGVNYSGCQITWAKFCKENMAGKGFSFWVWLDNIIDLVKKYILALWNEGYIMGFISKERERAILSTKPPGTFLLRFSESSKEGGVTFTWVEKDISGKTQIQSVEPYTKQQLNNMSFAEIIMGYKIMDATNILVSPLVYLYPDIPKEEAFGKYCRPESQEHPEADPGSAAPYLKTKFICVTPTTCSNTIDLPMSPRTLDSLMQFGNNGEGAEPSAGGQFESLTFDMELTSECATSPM
# Procedure: These findings imply that DH_31 exerts its anticancer effects by modulating the expression and/or accumulation of STAT3.
# Western blot analysis was performed to detect and quantify specific proteins in a sample. H460 cells (4.0 × 10^5 cells per well) were seeded in 6 well plates. Following overnight incubation, the cells were treated with different concentrations of DH_31 (0–2.5 μM) for 24 h at 37 °C. After treatment, the cell lysates were isolated using a 1 × RIPA buffer containing a protease inhibitor cocktail for 45 min at 4 °C. The protein content was determined using the BCA protein assay kit. For the Western blot assay, an equal amount of the denatured proteins from cell lysates was separated by electrophoresis on 10 or 12% SDS-PAGE and transferred to 0.2 µm polyvinylidene difluoride (PVDF) membranes (Bio-Rad Laboratories, Hercules, CA, USA). After the membranes were blocked with 5% skim milk, they were then incubated overnight with specific primary antibodies at 4 °C. Subsequently, the membranes were incubated with HRP-conjugated secondary antibodies for 1 h at room temperature. Protein bands were visualized using SuperSignal^TM West Pico PLUS Chemiluminescent Substrate. The protein intensity was analyzed using ImageJ™ software (Image J 1.52a, Rasband, W., National Institutes of Health, Bethesda, MD, USA).
# STAT3–ubiquitin complex = target: T2, STAT3–ubiquitin complex (Homo sapiens, UniProt P40763); experiment: Immunoprecipitation and Western blot of STAT3–ubiquitin complex; assay type: cell-based; conditions: H460, 2.5 µM, 6 h, MG132 10 µM pretreatment, vs untreated cells
# T2 construct: endogenous in cells; host or cells: NCI-H460 (ATCC HTB-177)
# T2 sequence (P40763 2-770 limits assumed, one chain of several): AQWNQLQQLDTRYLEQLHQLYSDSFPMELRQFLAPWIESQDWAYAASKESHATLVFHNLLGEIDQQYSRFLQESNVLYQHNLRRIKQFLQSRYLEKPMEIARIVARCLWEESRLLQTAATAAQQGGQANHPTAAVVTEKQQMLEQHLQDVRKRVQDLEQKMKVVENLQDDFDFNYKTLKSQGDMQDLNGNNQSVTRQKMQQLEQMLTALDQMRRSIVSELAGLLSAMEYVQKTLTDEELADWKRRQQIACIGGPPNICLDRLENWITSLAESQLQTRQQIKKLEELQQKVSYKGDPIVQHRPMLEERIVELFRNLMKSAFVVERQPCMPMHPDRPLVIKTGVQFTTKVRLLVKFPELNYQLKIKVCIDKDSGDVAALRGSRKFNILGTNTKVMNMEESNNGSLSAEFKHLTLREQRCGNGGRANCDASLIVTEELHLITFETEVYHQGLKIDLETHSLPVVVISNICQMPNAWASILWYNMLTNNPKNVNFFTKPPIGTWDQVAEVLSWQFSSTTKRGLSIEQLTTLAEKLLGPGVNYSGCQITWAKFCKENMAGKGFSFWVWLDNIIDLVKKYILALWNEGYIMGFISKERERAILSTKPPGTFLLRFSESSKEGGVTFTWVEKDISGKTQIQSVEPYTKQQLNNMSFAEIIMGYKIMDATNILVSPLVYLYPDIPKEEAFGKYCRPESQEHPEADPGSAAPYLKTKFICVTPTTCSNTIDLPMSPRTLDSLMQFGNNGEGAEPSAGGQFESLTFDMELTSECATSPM
# Procedure: To explore whether the reduction in total STAT3 protein after DH_31 treatments (as shown in Figure 5B–E) occurs at the mRNA or protein levels, we first investigated mRNA levels using Real-time qPCR. […] To evaluate whether DH_31 affects STAT3 stability, pretreatment with MG132, a potent selective proteasome inhibitor, was performed. H460 cells were pretreated with or without MG132 (10 μM) for 1 h and then cells were either treated with DH_31 for 6 h or left untreated. […] The proteasome can recognize and degrade protein targets that are conjugated by single or poly-ubiquitin molecules. To investigate the ubiquitination level of STAT3 with DH_31 treatments, the ubiquitination level was evaluated using immunoprecipitation and Western blot analysis of the STAT3–ubiquitin complex in the lung cancer cells treated with DH_31 and in untreated cells.
# Immunoprecipitation assay was performed to investigate ubiquitin–proteasomal degradation, shedding light on the regulatory mechanisms involved. H460 cells (4.0 × 10^5 cells per well) were seeded in 6-well plates. Following overnight incubation, the cells were pretreated with 10 μM of a proteasome inhibitor, MG132, for 1 h to prevent proteasomal degradation, and then were treated with different concentrations of DH_31 (0–2.5 μM) for 6 h. After treatment, the cells were lysed as described above. […]
smiles,measurement,setting,value
"COc1c(C)cc2c(c1O)[C@@H]1CN(Cc3ccc4ccccc4c3)[C@@H](C#N)[C@H](C2)N1C [DH_31, (1R,4R,5S)-10-hydroxy-9-methoxy-8,11-dimethyl-3-(naphthalen-2-ylmethyl)-1,2,3,4,5,6-hexahydro-1,5-epiminobenzo[d]azocine-4-carbonitrile]",cell migration across the wound space,H460 cells,significantly decreased
same,ZO1 level (immunofluorescence),"[1]; H460, 0–2.5 µM, 24 h",slightly increased
same,Vimentin level (immunofluorescence),"[1]; H460, 1 μM (p < 0.01) and 2.5 μM (p < 0.001), 24 h",significant reduction
same,N-cadherin level (immunofluorescence),"[1]; H460, 1 μM (p < 0.05) and 2.5 μM (p < 0.001), 24 h",significant reduction
same,Snail level (immunofluorescence),"[1]; H460, 1 μM and 2.5 μM, 24 h (p < 0.05)",significant reduction
same,Slug protein level (immunofluorescence),"[1]; H460, 2.5 µM, 24 h (p < 0.05)",significant decrease
same,ZEB1 protein level (immunofluorescence),"[1]; H460, 2.5 µM, 24 h (p < 0.05)",significant decrease
same,STAT3 protein level (Western blot),STAT3,significant decrease
same,STAT3–ubiquitin formation,STAT3–ubiquitin complex,significantly enhanced
